This passage reports IC50 results from patent US7601751B2, “Indole acetic acid acyl guanidines as β-secretase inhibitors” (Bristol-Myers Squibb Company, priority 2005, dated 2009).

T1 sequence (P56817 46-501): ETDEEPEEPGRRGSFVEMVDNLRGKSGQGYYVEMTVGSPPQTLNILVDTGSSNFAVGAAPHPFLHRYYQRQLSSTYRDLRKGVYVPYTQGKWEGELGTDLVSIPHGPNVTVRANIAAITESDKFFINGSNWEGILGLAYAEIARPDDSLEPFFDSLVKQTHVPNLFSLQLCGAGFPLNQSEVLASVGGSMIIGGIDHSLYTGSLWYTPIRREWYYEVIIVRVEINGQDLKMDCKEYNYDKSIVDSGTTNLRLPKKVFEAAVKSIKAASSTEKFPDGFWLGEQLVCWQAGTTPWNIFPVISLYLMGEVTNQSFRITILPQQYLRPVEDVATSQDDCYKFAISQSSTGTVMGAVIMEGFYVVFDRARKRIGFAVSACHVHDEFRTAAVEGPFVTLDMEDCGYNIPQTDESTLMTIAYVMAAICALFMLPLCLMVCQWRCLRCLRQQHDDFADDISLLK

This assay has as its target T1, BACE1 enzyme (Homo sapiens, UniProt P56817).
T1 construct: The HEK293-9B.A1 cell line, which overexpresses the BACE1 enzyme, was derived from HEK293 cells; endogenous in cells; washed membrane pellet / cell homogenate
As to the kind of experiment: Radioligand displacement assay with a radiolabeled BACE inhibitor on HEK293-9B.A1 cell homogenate. It is filed as binding. The settings on record: HEK293-9B.A1 cell homogenate overexpressing BACE1, 1 nM radioligand, pH 5.0, 1.5 hr at 25° C., read-out: Activity Rating (activity based on IC50 values). The procedure:
Radioligand displacement assays with a radiolabeled BACE inhibitor (WO 2004 013098, compound 3, where the methoxy group is substituted for C(^3H)3) were carried out using standard methods (Keen, M. (1999) in Receptor Binding Techniques (Walker, J. M. ed) p. 106 Humana Press, Totowa, N.J.). The HEK293-9B.A1 cell line, which overexpresses the BACE1 enzyme, was derived from HEK293 cells (Simmons, N. L. (1990) A cultured human renal epithelioid cell line responsive to vasoactive intestinal peptide. Exp. Physiol. 75:309-19.) by RAGE™ (Harrington, J. J. et al. (2001) Creation of genome-wide protein expression libraries using random activation of gene expression. Nat. Biotechnol. 19:440-5; U.S. Pat. No. 6,410,266 and 6,361,972). T225 flask cultures of HEK293-9B.A1 were grown to 80% confluency in DMEM supplemented with 2 mM L-glutamine, 10 μg/ml penecillin, 10 μg/ml streptomycin, 3 μg/ml puromycin, 100 nM methotrexate, and 10% fetal bovine serun (Invitrogen, Carlsbad, Calif.), harvested, and resuspended at 2×10^8 cells per 10 ml of lysis buffer consisting of 50 mM HEPES pH 7.0 containing a protease inhibitor cocktail of AEBSF 104 μM, aprotinin 80 nM, leupeptin 2 μM, bestatin 4 μM, pepstatin A 1.5 μM, and E-64 1.4 μM (0.1% of protease inhibitor cocktail P8340, Sigma-Aldrich, St. Louis, Mo.) at 4° C. The resuspended cells were homogenized using a Polytron (Brinkman, Westbury, N.Y.) at setting 6 for 10 sec., then centrifuged at 48,000×g for 10 min. The resulting pellet was washed by repeating the resuspension, homogenization and centrifugation steps. The final pellet was resuspended in buffer at 4° C. to yield a total protein concentration of 5 mg/ml, then aliquots were frozen in liquid nitrogen for further storage at −70° C. Immediately before carrying out a binding assay, an aliquot of cell homogenate was thawed and diluted to a concentration of 100 μg/ml in assay buffer consisting of 50 mM HEPES pH 5.0 and 0.1% CHAPSO. Assays were initiated in polypropylene 96-well plates (Costar, Cambridge, Mass.) by the addition of 200 μl of cell homogenate to 50 μl of assay buffer containing 1 nM radioligand (WO 2004 013098, compound 3, where the methoxy group is substituted for C(^3H)3: 80 Ci/mMol) and various concentrations of unlabelled compounds, and incubated for 1.5 hr. at 25° C. Separation of bound from free radioligand was by filtration on GFF glass fiber filters (Innotech Biosystems International, Lansing, Mich.) using an Innotech cell harvester. Filters were washed three times with 0.3 ml of phosphate buffered saline pH 7.0 at 4° C. and assessed for radioactivity using a Wallac 1450 Microbeta liquid scintillation counter (PerkinElmer, Boston, Mass.). Ki values of competing compounds were derived through Cheng-Prussoff correction of IC50 values calculated using XLfit (IDBS, Guildford, UK).
A general note: In a radioligand displacement assay an active substance lowers the binding of a labelled ligand.
Consider `CC(=O)Nc1c(Cl)cc(CN/C(N)=N/C(=O)Cc2c[nH]c3cc(Br)ccc23)cc1Cl` [Example 1, N-(4-{N′-[2-(6-Bromo-1H-indol-3-yl)-acetyl]-guanidinomethyl}-2,6-dichloro-phenyl)-acetamide], for which the IC50 – broadly, the concentration that gives 50% inhibition – was 100 to 1000 nM. As for `COc1ccc2[nH]cc(CC(=O)/N=C(\N)NCc3cc(Cl)c(NC(C)=O)c(Cl)c3)c2c1` [Example 2, N-(2,6-Dichloro-4-{N′-[2-(5-methoxy-1H-indol-3-yl)-acetyl]-guanidinomethyl}-phenyl)-acetamide], the figure is 100 to 1000 nM; as for `COc1ccc2[nH]cc(CC(=O)/N=C(\N)NCc3cc(Cl)cc(Cl)c3)c2c1` [Example 3, N-(3,5-Dichloro-benzyl)-N′-[2-(5-methoxy-1H-indol-3-yl)-acetyl]-guanidine], over 1000 nM; as for `N/C(=N\C(=O)Cc1c[nH]c2ccc(F)cc12)NCc1cc(Cl)cc(Cl)c1` [Example 4, N-(3,5-Dichloro-benzyl)-N′-[2-(5-fluoro-1H-indol-3-yl)-acetyl]-guanidine], over 1000 nM. On to `Cn1cc(CC(=O)/N=C(\N)NCc2cc(Cl)c(N)c(Cl)c2)c2ccccc21` [Example 5, N-((4-amino-3,5-dichlorobenzylamino)(amino)methylene)-2-(1-methyl-1H-indol-3-yl)acetamide], for which the IC50 is over 1000 nM. As for `N/C(=N\C(=O)Cc1cn(Cc2ccc(F)cc2)c2ccccc12)NCc1cc(Cl)c(N)c(Cl)c1` [Example 6, N-((4-amino-3,5-dichlorobenzylamino)(amino)methylene)-2-(1-(4-fluorobenzyl)-1H-indol-3-yl)acetamide], the figure is over 1000 nM; as for `COc1ccc2[nH]cc(CC(=O)/N=C(\N)NCc3cc(Cl)c(N)c(Cl)c3)c2c1` [Example 7, N-((4-amino-3,5-dichlorobenzylamino)(amino)methylene)-2-(5-methoxy-1H-indol-3-yl)acetamide], over 1000 nM. For `CC(C(=O)/N=C(\N)NCc1cc(Cl)c(N)c(Cl)c1)c1c[nH]c2ccccc12` (stereo not shown) [Example 8, N-((4-amino-3,5-dichlorobenzylamino)(amino)methylene)-2-(1H-indol-3-yl)propanamide], the IC50 is over 1000 nM.

For the compound `COc1ccc2[nH]cc(CC(=O)/N=C(\N)NCc3cc(C)c(NC(C)=O)c(Cl)c3)c2c1` [Example 9, N-(2-Chloro-4-{N′-[2-(5-methoxy-1H-indol-3-yl)-acetyl]-guanidinomethyl}-6-methyl-phenyl)-acetamide], the IC50 lay in the range of 100 to 1000 nM. The figure for `COc1ccc2[nH]c(C)c(CC(=O)/N=C(\N)NCc3cc(Cl)c(NC(C)=O)c(Cl)c3)c2c1` [Example 10, N-(2,6-Dichloro-4-{N′-[2-(5-methoxy-2-methyl-1H-indol-3-yl)-acetyl]-guanidinomethyl}-phenyl)-acetamide] is 100 to 1000 nM.

Consider `CC(=O)Nc1c(Cl)cc(CN/C(N)=N/C(=O)Cc2c(C)[nH]c3ccccc23)cc1Cl` [Example 11, N-(2,6-Dichloro-4-{N′-[2-(2-methyl-1H-indol-3-yl)-acetyl]-guanidinomethyl}-phenyl)-acetamide], for which the IC50 lay in the range of 100 to 1000 nM. The figure for `CC(=O)Nc1c(Cl)cc(CN/C(N)=N/C(=O)Cc2c[nH]c3ccc(F)cc23)cc1Cl` [Example 12, N-(2,6-Dichloro-4-{N′-[2-(5-fluoro-1H-indol-3-yl)-acetyl]-guanidinomethyl}-phenyl)-acetamide] is 100 to 1000 nM. On to `CC(=O)Nc1c(Cl)cc(CN/C(N)=N/C(=O)Cc2c[nH]c3ccc(OCc4ccccc4)cc23)cc1Cl` [Example 13, N-(4-{N′-[2-(5-Benzyloxy-1H-indol-3-yl)-acetyl]-guanidinomethyl}-2,6-dichloro-phenyl)-acetamide], for which the IC50 is over 1000 nM. As for `CC(=O)Nc1c(Cl)cc(CN/C(N)=N/C(=O)Cc2c[nH]c3ccc(O)cc23)cc1Cl` [Example 14, N-(2,6-Dichloro-4-{N′-[2-(5-hydroxy-1H-indol-3-yl)-acetyl]-guanidinomethyl}-phenyl)-acetamide], the figure is 100 to 1000 nM. `CC(=O)Nc1c(Cl)cc(CN/C(N)=N/C(=O)Cc2c[nH]c3cc(OCc4ccccc4)ccc23)cc1Cl` [Example 15, N-(4-{N′-[2-(6-Benzyloxy-1H-indol-3-yl)-acetyl]-guanidinomethyl}-2,6-dichloro-phenyl)-acetamide]: the IC50 fell in the range of 100 to 1000 nM. Turning to `CC(=O)Nc1c(Cl)cc(CN/C(N)=N/C(=O)Cc2c[nH]c3cc(F)ccc23)cc1Cl` [Example 16, N-(2,6-Dichloro-4-{N′-[2-(6-fluoro-1H-indol-3-yl)-acetyl]-guanidinomethyl}-phenyl)-acetamide], the IC50 lay in the range of 100 to 1000 nM.

As to `N/C(=N\C(=O)Cc1c[nH]c2ccc(Br)cc12)NCc1cc(Cl)c(N)c(Cl)c1` [Example 17, N-(4-Amino-3,5-dichloro-benzyl)-N′-[2-(5-bromo-1H-indol-3-yl)-acetyl]-guanidine], the IC50 is over 1000 nM.

Consider `CN1CCN(c2ccc(CN/C(N)=N/C(=O)Cc3c[nH]c4ccc(Br)cc34)cc2)CC1` [Example 18, N-[2-(5-Bromo-1H-indol-3-yl)-acetyl]-N′-[4-(4-methyl-piperazin-1-yl)-benzyl]-guanidine], for which the IC50 was over 1000 nM.

With `CN1CCN(c2ccc(CN/C(N)=N/C(=O)Cc3c[nH]c4ccc(Br)cc34)cc2Cl)CC1` [Example 19, N-[2-(5-Bromo-1H-indol-3-yl)-acetyl]-N′-[3-chloro-4-(4-methyl-piperazin-1-yl)-benzyl]-guanidine], the IC50 is over 1000 nM. For `CC(=O)Nc1c(Cl)cc(CN/C(N)=N/C(=O)Cc2c[nH]c3ccc(Br)cc23)cc1Cl` [Example 20, N-(4-{N′-[2-(5-Bromo-1H-indol-3-yl)-acetyl]-guanidinomethyl}-2,6-dichloro-phenyl)-acetamide], the half-maximal inhibitory concentration (IC50) was under 100 nM. Consider `CC(=O)Nc1c(Cl)cc(CN/C(N)=N/C(=O)Cc2c(C)[nH]c3ccc(F)cc23)cc1Cl` [Example 21], for which the IC50 was 100 to 1000 nM.

Take `CC(=O)Nc1c(Cl)cc(CN/C(N)=N/C(=O)Cc2c(C)[nH]c3c(F)cccc23)cc1Cl` [Example 22, N-(2,6-Dichloro-4-{N′-[2-(7-fluoro-2-methyl-1H-indol-3-yl)-acetyl]-guanidinomethyl}-phenyl)-acetamide]: the IC50 was in the range of 100 to 1000 nM. As for `CC(=O)Nc1c(Cl)cc(CN/C(N)=N/C(=O)Cc2c[nH]c3ccc(C#N)cc23)cc1Cl` [Example 23, N-(4-{N′-[2-(5-Cyano-1H-indol-3-yl)-acetyl]-guanidinomethyl}-2,6-dichloro-phenyl)-acetamide], the figure is under 100 nM; as for `CC(=O)Nc1c(Cl)cc(CN/C(N)=N/C(=O)Cc2c(C(=O)NC(C)(C)C)[nH]c3ccc(Br)cc23)cc1Cl` [Example 24, 3-{2-[N′-(4-Acetylamino-3,5-dichloro-benzyl)-guanidino]-2-oxo-ethyl}-5-bromo-1H-indole-2-carboxylic acid tert-butylamide], under 100 nM; as for `CC(=O)Nc1c(Cl)cc(CN/C(N)=N/C(=O)Cc2c(C#N)[nH]c3ccc(Br)cc23)cc1Cl` [Example 25, N-(4-{N′-[2-(5-Bromo-2-cyano-1H-indol-3-yl)-acetyl]-guanidinomethyl}-2,6-dichloro-phenyl)-acetamide], under 100 nM.
